# Reference: patent US6194173A, “Binding proteins for phosphoinositides, GRP1 or general receptor 1 for phophoinositide” (priority 1999, dated 2001)
# “Also recorded” adds a separate entry of the source.
# Experiments:
# PH domain of GRP = target: T1, PH domain of GRP (Mus musculus, UniProt O08967); assay: Binding specificity of the GRP PH domain for 32P-labeled phosphoinositides (GST-PH on nitrocellulose); parameters: species or system murine; conditions: GST-PH, 25,000 cpm lipid; relative to GST
# T1 sequence (O08967 239-399): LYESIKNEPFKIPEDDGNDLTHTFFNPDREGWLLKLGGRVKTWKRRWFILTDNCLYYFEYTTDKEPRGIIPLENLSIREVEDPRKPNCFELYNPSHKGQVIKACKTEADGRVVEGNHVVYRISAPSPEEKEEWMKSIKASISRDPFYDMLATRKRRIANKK
# Description: The 3'-phosphatidylinositol probes labeled at the 3' position were generated using GST-p110 PI3-kinase purified from recombinant bacculovirus infected Sf 9 cells, using either purified phosphatidylinositol phosphates or crude brain lipid. Briefly, 20 mg phospholipid in chloroform was dried under N2 and resuspended in […] of buffer containing Tris-HCl pH 7.4, EDTA 1 mM and incubated in […] phopsphorylation media containing 20 mM Tris-HCl pH 7.4, 100 mM NaCl, 10 mM MgCl2, 0.5 mM EGTA. 0.2 mM adenosine, GST-p110 and 5-10 mCi [g-^32 P]ATP (5 Ci/umol). The reaction was carried out for 2 h at room temperature, quenched by addition of 0.2 ml of 1M HCl, followed by 0.5 ml of chloroform:methanol (1:1). The organic phase containing phospholipids was washed 4 times with 0.4 ml of methanol:HCl (1: 1) and stored at -70° C. until use. Just before use, the lipid was dried under a stream of nitrogen with phosphatidyl serine corresponding to a final concentration of 20 mg/ml. The identities of the PI3-P, PI3,4-P2 and PI3,4,5-P3 were confirmed by TLC and HPLC analysis.
# To generate the GST fusion proteins, PCR reactions using the primers: […] (SEQ ID NO:9) and […] (SEQ ID NO:10) for the GST-N construct, […] (SEQ ID NO:11) and […] (SEQ ID NO:12) for the GST-Sec7 construct, […] (SEQ ID NO:13) and […] (SEQ ID NO:14) for the GSTPH construct, and […] […] The filters were washed four times with 1 mL assay buffer and counted in a scintillation counter.
# In order to determine whether PI(3,4,5)P3 binding could be localized to specific sequences within the GRP structure, GST fusion proteins containing either residues 239 to 399 (PH domain), residues 52 to 260 (Sec7 domain), or residues 5 to 71, full length GRP residues 5-399 were expressed in bacteria and purified on glutathione-conjugated beads. […] 150 pmol of the proteins were spotted on nitrocellulose filters, incubated with [^32 P]PI(3,4,5)P3 and the amount of bound lipid was determined as described. […] Nitrocellulose filters with GST-PH were incubated with 25,000 cpm of each of the phospholipids and the amount of bound lipid determined as described above. […]
# GRP Sec7 homology domain = assay: Effect of phosphoinositides on ARF1 exchange catalyzed by the GRP Sec7 domain; format: biochemical, mouse; conditions: 25 μM PtdIns(3,4,5)P3
# GRP = target: T2, GRP (Mus musculus, UniProt O08967); assay: Effect of phosphoinositides on GRP-catalyzed ARF1 guanine nucleotide exchange; format: biochemical; conditions: for stimulation of ARF1 exchange activity in the presence of GRP: 25 μM lipid, 0.15 μM GRP
# T2 construct: GST (N, cleaved yes); made in house; host or cells: GRP from pGEX-4T; ARF1 from baculovirus-infected Sf-9 cells
# T2 sequence (O08967 1-399): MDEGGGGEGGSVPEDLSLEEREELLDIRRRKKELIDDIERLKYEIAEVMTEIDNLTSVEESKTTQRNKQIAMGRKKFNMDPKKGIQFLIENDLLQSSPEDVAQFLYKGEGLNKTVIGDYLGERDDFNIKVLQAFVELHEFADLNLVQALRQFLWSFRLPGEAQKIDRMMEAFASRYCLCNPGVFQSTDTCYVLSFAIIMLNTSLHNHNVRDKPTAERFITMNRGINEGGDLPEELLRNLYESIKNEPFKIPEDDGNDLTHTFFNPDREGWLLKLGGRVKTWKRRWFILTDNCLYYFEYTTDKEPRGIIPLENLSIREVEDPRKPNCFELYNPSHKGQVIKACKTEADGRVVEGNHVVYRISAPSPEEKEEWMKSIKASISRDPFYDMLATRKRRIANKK
substance,measurement,setting,value
"Phosphatidylinositol (3,4,5)-Trisphosphate [PtdIns(3,4,5)P3]",binding of labeled phosphoinositide to the GRP PH domain,PH domain of GRP,specifically
same,effect on ARF exchange activity catalyzed by the GRP Sec7 homology domain,GRP Sec7 homology domain,no effect
same,maximal activation of GRP-catalyzed ARF1 exchange,"GRP; 0.1 μM GRP1, 40 minutes",3-4 fold
same,EC50,"GRP; 0.1 μM GRP1, 40 minutes, read-out: half maximal stimulation of GRP-catalyzed ARF1 [^35 S]GTPγS binding",~1000 nM
same,stimulation of ARF1 exchange activity in the presence of GRP,GRP; 0.05% cholate and 0.05% CHAPS (low negative charge),selectively stimulated; also recorded: Selectivity
same,stimulation of ARF1 exchange activity in the presence of GRP,GRP; 0.1% cholate (high negative charge),stimulated
